Structures are written as SMILES. pEC50: −log10 of the molar value. “Also recorded” adds a separate entry of the source.

In data set [1] the target is T1, human CB2R (Homo sapiens, UniProt P34972). Nature of the data set: cAMP Hunter eXpress GPCR assay, human CB2: inhibition of forskolin-stimulated cAMP in CHO cells. It counts as cell-based. The arrangement: host or cells: CHO cells. The method, then:
Briefly, cAMP Hunter eXpress Cells were seeded 18-24 h prior to the in a 96-well tissue culture treated assay plate and incubated in 5% CO2 at 37° C. in a humidified incubator. After removal of cell media, agonist compound and forskolin prepared in cell assay buffer was added and incubated at 37° C. The CB1 cAMP assay was stimulated with 20 μM final concentration of forskolin with 40 minutes incubation time. The CB2 cAMP assay was stimulated with 25 μM final concentration of forskolin with 35 minutes incubation time. The assay was stopped by incubation with antibody and working solution for 1 h at room temperature. After over 3 h incubation at room temperature in the dark with enzyme acceptor solution, chemiluminescence was measured on a CLARIOstar plate reader (BMG LABTECH Inc., Cary, NC, USA).

In data set [2] the target is T1, human CB2R. Nature of the data set: PathHunter β-Arrestin assay, beta-arrestin recruitment. Type of data set: cell-based. Particulars: for Activation of beta-arrestin pathway (in words): hCB2, CP-55940 as control. The method, then: The assay was performed using the PathHunter β-Arrestin human CB2 cell line (catalog no. 93-0706C2) and using the PathHunter® β-Arrestin Assay for GPCR Cell Lines (source: DiscoveRx, Fremont, CA, USA), according to the manufacturer's protocol (https://www.discoverx.com/tools-resources/document-resource-library/documents/user-manual-pathhunter-% CE % B2-arrestin-assay-for-gpcr-c). Briefly, cells were seeded at a density of 10,000 cells per well in a 96-well plate and incubated overnight (16-18 h) in a humidified atmosphere at 37° C. and 5% C02. Agonist prepared in PBS was added and the assay plate incubated for 3 h in a humidified atmosphere at 37° C. and 5% C02. Working detection solution was added and the plate was incubated for 1 h in the dark at room temperature. Chemiluminescence was measured on an CLARIOstar plate reader (BMG LABTECH Inc., Cary, NC, USA).

Data set [3] has as its system mice dosed with LPS and ATP. The experiment in a line: LPS model of systemic inflammation, Luminex cytokines in plasma and brain homogenate. Particulars: 0.5 mg/kg ip daily for 10 days, LPS 100 ug/kg ip, ATP 50 mg/kg ip. Type of data set: in vivo, mouse. As for the experimental part: Mice were dosed with Compound 24 (0.5 mg/kg ip) or vehicle daily for 10 days. Lipopolysaccharide (LPS) (100 ug/kg ip) was given 1 hour after 10th dose on final day. ATP (50 mg/kg ip) was given 2 hours after LPS and then mice were sacrificed 30 minutes after ATP (2.5 hours after LPS). Multiplex tissue cytokines were analyzed in plasma and brain homogenate from all brain regions dissected above using a Luminex 38-plex mouse cytokine assay as previously described for aged versus young mice (Evans et al. Neurobiol Aging 2021; 106:241-56). The Luminex assay was performed according to the manufacturer's instructions. Briefly, tissue samples were homogenized in RIPA buffer containing proteinase inhibitor by pulling tissue through a 23 g needle (15×) and then sonicating for 3×3 second pulses. Homogenate was spun at 14,000 g for 10 minutes, and protein concentrations were determined by the Pierce BCA assay. Samples were diluted to a common concentration of 6 μg/μL. Plasma samples were diluted 1:3. Plasma and brain homogenate samples were run in duplicate on a 96 well plate alongside standard curve and quality control calibration samples.

The test system of a further data set is Male C57Bl6J mice. The experiment in a line: Spontaneous locomotor activity in activity chamber. Particulars: mouse, in vivo, ip. It counts as in vivo, mouse.
Data set [4] concerns Male C57BL/6J mice brain tissue. The experiment in a line: Brain cytokine gene expression (TaqMan qPCR). Type of data set: in vivo, mouse. Particulars: 0.1 and 0.3 mg/kg or 1, 2, and 3 mg/kg. The method, then: Male C57BL/6J mice, 6-8 weeks old were dosed on Day 1,2,3,4,5, and 10, or 11 with vehicle or CBS-159 at 0.1 and 0.3 mg/kg or 1, 2, and 3 mg/kg. Mice were terminated on Day 10 or 11, 3.5 hours after dosing vehicle or CBS-159. Total RNA was isolated from brain tissue dissections using the RNeasy Lipid Tissue Mini Kit (Qiagen) (see Evans et al. Neurobiol. Dis. 2020, 146:105089). One microgram of total RNA was transcribed into cDNA (Superscript III, Invitrogen). PCR was performed in triplicate using TaqMan gene expression master mix (Applied Bio-systems) and validated TaqMan gene expression assays, Tnfa (Mm00443258_m1), IL1β (Mm00434228_m1), IL6 (Mm00446190_m1),), IL18 (Mm00434226_m1), and glyceraldehyde-3-phosphate dehydrogenase (Gapdh; Mm99999915_g1). Amplification was performed using a StepOnePlus system (Applied Biosystems). Fold changes of expression relative to control were determined after normalization to Gapdh. Relative quantification and old change were calculated by the comparative CT method (Schmittgen and Livak, Nat. Protoc. 2008, 3(6):1101-1108).
(In general: Real-time PCR tracks product formation cycle by cycle.)

For the next data set, the system named is Heroin SA-trained rats. Nature of the data set: Heroin self-administration model. It counts as in vivo, rat. Particulars: treated daily during 21 days of abstinence, 3 mg/kg i.p., vs vehicle. As for the experimental part: In the heroin SA model, rats were surgically implanted with a catheter that connects to their heart. […] They learned to press an active lever to get an infusion of heroin through their implanted tube. […] Heroin SA-trained rats underwent 21 days of abstinence after training. […] Heroin-seeking behaviors were assessed before and after the abstinence period.

The next data set concerns heroin-addicted mice. Nature of the data set: Naloxone-precipitated withdrawal model. Type of data set: in vivo, mouse. Particulars: 3 mg/kg i.p., jumping 1 minute after naloxone 50 mg/kg. As for the experimental part: The naloxone-precipitated withdrawal model uses an opioid receptor antagonist, naloxone, to trigger highly aversive withdrawal symptoms (e.g., jumping, burrowing, “wet-dog” shakes, hyperreactivity) in heroin-addicted mice. Signs such as jumping can be quantified after administration of naloxone (“naloxone precipitated withdrawal”). […] On Day 7, 60 minutes after a final drug and heroin dose (40 mg/kg), naloxone was administered (50 mg/kg), and jump count measured for 1-15 minutes.

Where [5] appears, read: cAMP assay, CP-55940 as full agonist control.

T1 sequence (P34972 whole entry): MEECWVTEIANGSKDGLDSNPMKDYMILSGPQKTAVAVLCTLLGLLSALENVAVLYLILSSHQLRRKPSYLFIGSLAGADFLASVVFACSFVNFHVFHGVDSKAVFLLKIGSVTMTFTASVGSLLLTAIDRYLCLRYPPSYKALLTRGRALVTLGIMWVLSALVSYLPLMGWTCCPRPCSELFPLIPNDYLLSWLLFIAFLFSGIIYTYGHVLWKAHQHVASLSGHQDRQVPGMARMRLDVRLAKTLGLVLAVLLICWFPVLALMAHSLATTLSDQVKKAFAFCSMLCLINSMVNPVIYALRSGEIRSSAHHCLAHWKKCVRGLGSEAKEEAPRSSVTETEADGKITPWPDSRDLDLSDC

Usually melting point stands for the temperature, or range, at which the solid turns liquid. On to `CC(C)(C)c1cc(NC(=O)N2CCCN2c2ccc(F)cc2)on1` [Compound 21, N-(3-(tert-butyl)isoxazol-5-yl)-2-(4-fluorophenyl)pyrazolidine-1-carboxamide], for which the melting point was 190 to 194 °C.

Compound `Cc1cc2c(nc(-c3ccccc3Cl)n2C2CCOCC2)c(N2CCN(C)CC2)n1` [Compound 2, 2-(2-chlorophenyl)-6-methyl-4-(4-methylpiperazin-1-yl)-1-(tetrahydro-2H-pyran-4-yl)-1H-imidazo[4,5-c]pyridine] returned a melting point of 248 to 252 °C.

In turn, `CC(C)(C)c1cc(NC(=O)N2CCC(=O)N2c2ccc(C(F)(F)F)cc2)on1` [Compound 29, N-(3-(tert-butyl)isoxazol-5-yl)-3-oxo-2-(4-(trifluoromethyl)phenyl)pyrazolidine-1-carboxamide] showed a melting point of 186 to 190 °C.

With `CC(C)(C)c1cc(NC(=O)N2CCCN2)on1` [Compound 31, N-(3-(tert-butyl)isoxazol-5-yl)pyrazolidine-1-carboxamide], the melting point fell in the range of 175 to 179 °C.

Consider `CC(C)(C)c1cc(NC(=O)N2CCCC2c2ccc(C(F)(F)F)cc2)no1` (stereo not drawn) [Compound 26, N-(5-(tert-butyl)isoxazol-3-yl)-2-(4-(trifluoromethyl)phenyl)pyrrolidine-1-carboxamide], for which the melting point was in the range of 175 to 179 °C.

As for `CC(C)(C)c1cc(NC(=O)N2CCCN2c2cc(F)cc(F)c2)on1` [Compound 19, N-(3-(tert-butyl)isoxazol-5-yl)-2-(3,5-difluorophenyl)pyrazolidine-1-carboxamide], the melting point was in the range of 181 to 185 °C.

The compound `CC(C)(C)c1cc(NC(=O)N2CCCN2c2ccc(C(F)(F)F)cn2)on1` [Compound 3, N-(3-(tert-butyl)isoxazol-5-yl)-2-(5-(trifluoromethyl)pyridin-2-yl)pyrazolidine-1-carboxamide] displayed a melting point of 184 to 188 °C.

In general, pEC50 refers to −log10 of the EC50, conventionally taken in molar units. `CC(C)(C)c1cc(NC(=O)N2CCCN2c2ccc(C(F)(F)F)cc2)on1` [Compound 11, N-(3-(tert-butyl)isoxazol-5-yl)-2-(4-(trifluoromethyl)phenyl)pyrazolidine-1-carboxamide] yielded a melting point of 211 to 215 °C. Also, the Emax at human CB2R [1] (CHO, read-out: CB2 Maximum Activation) was determined as 114%. In addition, on human CB2R [1] (Table 3; cAMP assay, 25 μM forskolin, 35 minutes; read-out: CB2 EC50), the pEC50 is 7.12. On human CB2R [1] (setting [5]), the “CB2 agonist character (in words)” value was “full agonist”. Further, on human CB2R [1] (cAMP assays hCB1 vs hCB2), the “Selectivity for CB2 over CB1 (in words)” value is listed as “selective for CB2 over CB1”. In addition, at human CB2R [2], the pEC50 was less than 6.00 and the “Activation of beta-arrestin pathway (in words)” value (“Activation” for short) is on record as “weakly/partially activates the beta-arrestin pathway”. The Emax at human CB2R [2] (read-out: B-arrestin Maximum Activation) stood at 35.5%.

With `O=C(Nc1cc(C2CC2)no1)N1CCCN1c1ccc(C(F)(F)F)cc1` [Compound 16, N-(3-cyclopropylisoxazol-5-yl)-2-(4-(trifluoromethyl)phenyl)pyrazolidine-1-carboxamide], the “CB2 agonist character (in words)” value on human CB2R [1] (setting [5]) was “partial agonist of CB2”. Also, on human CB2R [1] (cAMP assays hCB1 vs hCB2), the “Selectivity for CB2 over CB1 (in words)” value is recorded as “selective for CB2 over CB1”. Also, the “Activation” value at human CB2R [2] is on record as “almost no beta-arrestin activity”.

For `CN1CCN(c2nccc3c2nc(-c2ccccc2Cl)n3C2CCOCC2)CC1` [Compound 1, 2-(2-chlorophenyl)-4-(4-methylpiperazin-1-yl)-1-(tetrahydro-2H-pyran-4-yl)-1H-imidazo[4,5-c]pyridine], the melting point was 231 to 235 °C.

With `CC(C)(CO)c1cc(NC(=O)N2CCCN2c2ccc(C(F)(F)F)cn2)on1` [Compound 24, N-(3-(1-hydroxy-2-methylpropan-2-yl)isoxazol-5-yl)-2-(5-(trifluoromethyl)pyridin-2-yl)pyrazolidine-1-carboxamide], in data set [3], the “Anti-inflammatory function in LPS model of systemic inflammation” value is reported as “has anti-inflammatory activity; also recorded: displays anti-inflammatory function in a LPS model of systemic inflammation”. Further, the “Distance moved / spontaneous locomotor activity” value with Male C57Bl6J mice is “does not affect spontaneous locomotor activity in mice”. In data set [4], the “Anti-inflammatory function in the brain” value was “displays anti-inflammatory function in the brain”. For the same compound, the “CB2 agonist character (in words)” value at human CB2R [1] (setting [5]) is “potent agonists of CB2”. The “Selectivity for CB2 over CB1 (in words)” value on human CB2R [1] (cAMP assays hCB1 vs hCB2) is reported as “selective for CB2 over CB1”. The “Activation” value at human CB2R [2] is reported as “weak beta-arrestin activity”.

For the compound `Cc1nc(N2CCN(C)CC2)c2nc(-c3ccccc3Cl)n(C3CCOCC3)c2n1` [LY2828360, reference compound], in the data set on Heroin SA-trained rats, the Abstinence-induced heroin seeking result is recorded as “less abstinence-induced heroin seeking than the vehicle-treated rats”. Besides, the values for the Emax at human CB2R [1] (CHO; read-out: CB2 Maximum Activation) and at human CB2R [2] (read-out: CB2 Maximum Activation) were 52.6% and 51.7%, respectively. Besides, the “Activation” value at human CB2R [2] is recorded as “weakly/partially activates the beta-arrestin pathway”. For the same compound, the “Negative effects of heroin withdrawal (jumping behavior after naloxone)” value with heroin-addicted mice is recorded as “reduce the negative effects of heroin withdrawal”.

The values are drawn from patent publication US20240158384A1, “CB2 RECEPTOR AGONISTS” (The Board of Trustees of the Leland Stanford Junior …, priority 2020, published 2024).
